Assay results published in patent publication US20230144023A1, “USE OF BUTYLPHTHALIDE AND DERIVATIVE THEREOF” (CSPC NBP PHARMACEUTICAL CO., LTD, priority 2020, published 2023).
Where “and” joins values, the source holds several entries; their conditions need not be identical. Equal entries are not always repeated. Structures can show the parent of a compound that is named as a salt. Where two headings read alike, the source gives them in different places.

Tests used:
[1] = tested on: chemotherapy-induced peripheral neuropathy; details: cited from earlier work
MM.1S xenograft tumor = experiment: Influence of NBP on in vivo anti-tumor efficacy of Bortezomib, MM.1S xenograft (Example 8); design: species or system Nu/Nu mice; details: for T/C % / TGI % / RTV / TV: day 14; for T/C % / TGI % / RTV / TV / Tumor weight inhibition rate / Tumor weight: Bor 0.5 mg/kg, Pal 70 mg/kg, NBP 60 mg/kg, alone or combined; for RTV / TV / Tumor weight: mean, n=6; for Tumor weight inhibition rate / Tumor weight: end of experiment; for Tumor weight: in g (unit assumed); for body weights of the mice: mouse, in vivo
Description: After in vitro resuscitation and passage of MM.1S cells to a sufficient amount, the cells were counted by a microscope, and diluted with a serum-free medium to adjust the cell count to about 1×10^8 cells/mL. The cell suspension was kept in an ice-water bath. The MM.1S cell suspension was extracted by a sterile syringe and inoculated into the subcutaneous tissue of the forelimb axilla of the Nu/Nu mice. […] Monotherapy group of Palbociclib: intragastric administration at 70 mg/kg, qd (the administration was commenced on day 0); […] The solvent group was given the solvent at the same frequency and with the same administration method as Bortezomib and NBP. The administration period was 16 days, and the administration volume was 10 mL/kg. […] Animals were weighed at set time once per day after the commencement of administration. After animals were grouped, the long diameter and the short diameter of the tumor were measured twice every week. […] V=1⁄2×A×B^2 […] (4) Tumor growth inhibition rate: Note: V: tumor volume; A: tumor length; B: tumor width; RTV: relative tumor volume; TVnd: tumor volume on day n; TV0d: tumor volume on day 0; […]: mean relative tumor volume on day n; TVXn: mean tumor volume of the therapy group on day n; TVX0: mean tumor volume of the therapy group on day 0; TVMn: mean tumor volume of the solvent group on day n; and TVM0: mean tumor volume of the solvent group on day 0 At the end of the experiment, after the animals were euthanized by CO2 asphyxiation, the tumors were excised and weighed.

[2] = tested on: paclitaxel (albumin bound) chemotherapy-induced peripheral neuropathy; experiment: Paclitaxel (albumin bound) chemotherapy-induced peripheral neuropathy in rats, butylphthalide intragastric administration (Example 2); format: in vivo, SD (Sprague Dawley) rats; details: duloxetine hydrochloride 15 mg/kg qd, compared with the model group
Description: The model group was given vegetable oil at the same frequency and with the same administration method as NBP. The normal group was given normal saline at the same frequency and with the same administration method as ab-PTX, and was given vegetable oil at the same frequency and with the same administration method as NBP. […] (2) Thermal pain threshold: measurements were performed on days −1, 7, and 14. Method: IITC Life Science Electronic Von Frey Anesthesio meter was used and the intensity of the light source was adjusted to obtain a baseline of thermal pain threshold of about 3-6 s. […] The rats were placed in a plastic compartment on a glass plate, to make the planta centers of the rats be exposed to the light source. […] (3) Mechanical stimulus pain threshold: measurements were performed on days 0, 6, and 13. Method: the rats were placed in a plastic compartment on a wire mesh, left to stand still for 15 min, stimulated using a stimulation probe with a diameter of 0.4 mm of the IITC Life Science Electronic Von Frey Anesthesio meter at the planta centers of the rats by gradually increasing the force until reflexive withdrawal of the rats.

[3] = cited from earlier work
[4] = tested on: chemotherapy-induced peripheral neuropathy; details: treatment of CIPN; guideline rating; cited from earlier work
[5] = tested on: MM.1S, Jeko-1, HT29, A549, DU145; experiment: In vitro proliferation of 5 cell strains, summary statements (Example 7); format: cell-based, Human; details: Homo sapiens; range over MM.1S, Jeko-1, HT29, A549, DU145; combined therapy with 30 μM NBP
Description: Different drug concentration gradients were set for each group.
Monotherapy group of NBP: NBP was 2× serially diluted from an initial concentration of 480 μM to 8 concentrations: 480, 240, 120, 60, 30, 15, 7.5, and 3.75 μM, respectively.
The action time of the drug was 72 h.
3 replicate wells were set for each concentration of each drug, and blank wells (only culture medium was present, and no tumor cells were inoculated) and normal wells (a culture medium inoculated with tumor cells, drug concentration was 0) were set.

[6] = PK of Bortezomib and butylphthalide in plasma of MM.1S tumor-bearing mice (Example 8); format: in vivo, Nu/Nu mice
Description: Monotherapy group of Bortezomib: administered by intraperitoneal injection at 0.5 mg/kg, biw (on days 0, 3, 7, 10, and 15);
Monotherapy group of NBP: administered by transoral gavage at 60 mg/kg, bid (the administration was commenced on day 0), and the second dose of NBP was administered with an interval from the first dose of ≥4 h;
Monotherapy group of Palbociclib: intragastric administration at 70 mg/kg, qd (the administration was commenced on day 0);
Combined therapy group of NBP/Bortezomib: the administration frequency and dose were the same as the frequency and dose of the monotherapy group of NBP and the monotherapy group of Bortezomib, respectively.
Combined therapy group of Bortezomib/Palbociclib: the administration frequency and dose were the same as the frequency and dose of the monotherapy group of Bortezomib and the monotherapy group of Palbociclib, respectively.
Combined therapy group of NBP/Bortezomib/Palbociclib: the administration frequency and dose were the same as the frequency and dose of the monotherapy group of NBP, the monotherapy group of Bortezomib, and the monotherapy group of Palbociclib, respectively.
Before administration of the last dose of Bortezomib (0 h), and 5 min, 15 min, 30 min, 1 h, 2 h, 4 h, 8 h, 24 h after the administration, blood was sampled (as detailed in Table 8) (except that blood was sampled from the mice in the solvent group only at 0 h), anticoagulated with heparin, and centrifuged to separate plasma, which was stored at −80° C. for later use. Bortezomib and butyphthalide in the plasma were determined by protein precipitation-LC/MS/MS.

[7] = prevention of CIPN, guideline rating
[8] = prevention of CIPN, patients receiving oxaliplatin treatment
[9] = Bor 0.5 mg/kg i.p., Pal 70 mg/kg, NBP 60 mg/kg, mean ± SD, n=6
[10] = prevention of CIPN, patients receiving cisplatin/oxaliplatin-based chemotherapy
[11] = prevention of CIPN, patients receiving paclitaxel/carboplatin chemotherapy

Molecule: NCCCNCCSP(=O)(O)O [Amifostine]
- Efficacy [1, 7]: Low
- Safety [1, 7]: Moderate

Molecule: Vitamin E
- Efficacy [1, 7]: Low
- Safety [1, 7]: Low

Molecule: CC(=O)c1c(C)c2cnc(Nc3ccc(N4CCNCC4)cn3)nc2n(C2CCCC2)c1=O [Palbociclib]
- T/C % (MM.1S xenograft tumor): 44.4%
- TGI % (MM.1S xenograft tumor): 56.3%
- RTV (MM.1S xenograft tumor): 4.3
- TV (MM.1S xenograft tumor): 605.4 mm^3
- Tumor weight inhibition rate (MM.1S xenograft tumor): 66.6%
- Tumor weight (MM.1S xenograft tumor): 0.550
- body weights of the mice (MM.1S xenograft tumor): no significant difference

Molecule: COc1ccc(C(CN(C)C)C2(O)CCCCC2)cc1 (centres unmarked) [Venlafaxine]
- Efficacy [1, 7]: Low
- Safety [1, 7]: Low

Molecule: CNCC[C@H](Oc1cccc2ccccc12)c1cccs1 [duloxetine hydrochloride, Duloxetine hydrochloride]
- body weights of the rats ([2]; NBP 3, 10 and 30 mg/kg bid, intragastric, throughout administration): significantly increase
- mechanical pain threshold ([2]; day 13, NBP 10 and 30 mg/kg bid, P<0.05): significantly decreased
- thermal pain threshold ([2]; day 14, NBP 3, 10 and 30 mg/kg bid, P<0.05): significantly decreased

Molecule: NC(=O)N1c2ccccc2C=Cc2ccccc21 [Carbamazepine]
- Efficacy [1, 7]: Low
- Safety [1, 7]: Low

Molecule: CC[C@]1(O)C[C@H]2CN(CCc3c([nH]c4ccccc34)[C@@](C(=O)OC)(c3cc4c(cc3OC)N(C=O)[C@H]3[C@@](O)(C(=O)OC)[C@H](OC(C)=O)[C@]5(CC)C=CCN6CC[C@]43[C@@H]65)C2)C1 [vincristine]
- patients experiencing coasting ([3]; when the chemotherapy is stopped): 30%

Molecule: NCC1(CC(=O)O)CCCCC1 [Gabapentin]
- Efficacy [4]: Low
- Safety [4]: Low

Molecule: CCN(CC)C(=S)S [Diethyldithio-carbamate]
- Safety [1, 7]: High

Molecule: Nc1nnc(-c2cccc(Cl)c2Cl)c(N)n1 [Lamotrigine]
- Efficacy [4]: No evidence
- Safety [4]: Low

Molecule: COCCOC(=O)C1=C(C)NC(C)=C(C(=O)OC(C)C)C1c1cccc([N+](=O)[O-])c1 (centres unmarked) [Nimodipine]
- Safety [1, 7]: Moderate

Molecule: CNCC[C@H](Oc1cccc2ccccc12)c1cccs1 [Duloxetine]
- Efficacy [4]: Moderate
- Safety [4]: Low

Molecule: Omega-3-fatty acid
- Efficacy [1, 8]: Low
- Safety [1, 8]: Low

Molecule: Amitriptyline/nortriptyline
- Efficacy [4]: Low

Molecule: CC(=O)O[C@H](CC(=O)[O-])C[N+](C)(C)C [Acetyl L-carnitine]
- Efficacy [1, 7]: Low
- Safety [1, 7]: Low
- Efficacy [4]: Low
- Safety [4]: Moderate

Molecule: CN(C)CCC=C1c2ccccc2CCc2ccccc21 [Amitriptyline]
- Efficacy [1, 7]: No evidence
- Safety [1, 7]: Moderate

Molecule: CC(C)C[C@H](NC(=O)[C@H](Cc1ccccc1)NC(=O)c1cnccn1)B(O)O [Bortezomib]
- IC50 [5]: 1 to 20 nM
- T/C % (MM.1S xenograft tumor): 98.0%
- TGI % (MM.1S xenograft tumor): 8.7%
- RTV (MM.1S xenograft tumor): 9.6
- TV (MM.1S xenograft tumor): 1124.8 mm^3
- Tumor weight inhibition rate (MM.1S xenograft tumor): 22.2%
- Tumor weight (MM.1S xenograft tumor): 1.282
- body weights of the mice (MM.1S xenograft tumor): no significant difference
- CI of Bortezomib [6, 9]: 30.2 ± 9.33 mL/min/kg
- Vd of Bortezomib [6, 9]: 14.2 ± 3.2 L/kg
- influence of Bortezomib on the pharmacokinetic behavior of NBP in mice ([6]; Bortezomib 0.5 mg/kg): substantially did not affect
- AUC(0-t) ([6]; Nu/Nu, mouse, plasma, ip, Bor 0.5 mg/kg i.p., Pal 70 mg/kg, NBP 60 mg/kg, mean ± SD, n=6, read-out: AUC0-t of Bortezomib in plasma): 290 ± 104 ng·h/mL
- MRT last ([6]; Nu/Nu, mouse, plasma, ip, Bor 0.5 mg/kg i.p., Pal 70 mg/kg, NBP 60 mg/kg, mean ± SD, n=6, read-out: MRT0-t of Bortezomib): 5.9 ± 0.8 h
- half-life ([6]; Nu/Nu, mouse, plasma, ip, Bor 0.5 mg/kg i.p., Pal 70 mg/kg, NBP 60 mg/kg, mean ± SD, n=6, read-out: t1/2 of Bortezomib in plasma (converted)): 56.6 ± 1.16 h
- Cmax ([6]; Nu/Nu, mouse, plasma, ip, after last Bortezomib dose, Bor 0.5 mg/kg i.p., Pal 70 mg/kg, NBP 60 mg/kg, mean ± SD, n=6, read-out: Cmax of Bortezomib in plasma): 113 ± 8 ng/mL
- IC50 (MM.1S): 2.55 nM and 2.94 nM and 2.99 nM and 2.83 nM
- IC50 (Jeko-1): 4.83 nM and 3.51 nM and 4.47 nM and 4.27 nM
- IC50 (HT29): 4.43 nM and 4.97 nM and 5.65 nM and 5.02 nM
- IC50 (A549): 11.8 nM and 13.3 nM and 10.6 nM and 11.9 nM
- IC50 (DU145): 12.8 nM and 11.9 nM and 17.1 nM and 13.9 nM
- patients still having clinically significant neuropathy ([3]; 2-3 months after treatment): 60-85%
- additional patients with moderate to severe neurotoxicity ([3]; human, in vivo): ~30%
- patients with severe painful sensory neuropathy ([3]; human, in vivo): 50%

Molecule: N[C@@H](CCC(=O)O)C(=O)O [Glutamate]
- Efficacy [1, 7]: Low
- Safety [1, 7]: Low

Molecule: N[C@@H](CCC(=O)N[C@@H](CS)C(=O)NCC(=O)O)C(=O)O [Glutathione]
- Efficacy [1, 10]: Low
- Safety [1, 10]: Low
- Efficacy [1, 11]: Low
- Safety [1, 11]: Low

Molecule: CC1=C(/C=C/C(C)=C/C=C/C(C)=C/C(=O)O)C(C)(C)CCC1 [All-trans retinoic acid]
- Efficacy [1, 7]: Low
- Safety [1, 7]: Moderate

Molecule: CC(=O)N[C@@H](CS)C(=O)O [Acetylcysteine]
- Efficacy [1, 7]: Low
- Safety [1, 7]: Low

Molecule: rhuLIF: intervention for prevention of CIPN listed in the ASCO guideline table
- Safety [1]: Low
- Efficacy [1, 7]: No evidence
